Results published in patent US10538567B2, “Compounds as peptidic trigonal GLP1/glucagon/GIP receptor agonists” (priority 2016, dated 2020).
Numbered stars: 1 amine (or outer) side, 2 acyl side, 3 side chain; on linkers, the order of the positions; unused ones are H or OH. Square brackets hold non-standard residues; d marks the D form. Side chains are listed from the residue outwards. Peptide text beside a SMILES is read from it. * marks the point of attachment. γGlu = O=C(O)[C@H](CCC(=O)[*:2])N[*:1]; Palmitoyl = CCCCCCCCCCCCCCCC(=O)*; Aib = CC(C)(N)C(=O)O

What was measured:
[1] = test system: female diet-induced obese (DIO) C57BL/6 mice; assay: Acute and chronic effects after s.c. treatment in female diet-induced obese (DIO) C57BL/6 mice; format: in vivo; conditions: for time until mice habituated to the feed intake suppression / Feed consumption estimate: DIO mice, 30 μg/kg s.c. twice-daily; for Feed consumption estimate: after dosing start; for Blood glucose profile following first treatment: fed DIO mice, day 1, 30 μg/kg s.c., 0-24 hours post-dose
Procedure: Female C57BL/6NHsd mice were ordered group housed from Envigo RMS Inc., shipped group housed and remained group housed with shipped cage mates in shoebox caging with wood chip bedding until day 38 of the predose phase. At the study start mice were between 25-26 weeks old.
Mice were housed under vivarium conditions that included a 12 h light/dark cycle (light phase 04:00 AM-4:00 PM), room temperatures between 23-26° C. and a relative humidity between 30-70%. All animals had free access to water and a high fat diet (TD97366) for 16 weeks prior to pharmacological intervention (dosing phase). Feed was replaced with fresh feed weekly until and for the last time on day 38 of the predose phase. During the subsequent dosing phase, approximately 50% of the remaining feed were removed, replaced with fresh feed, and pellets were mixed evenly once per week.
On predose day 38, obese DIO mice were assigned to treatment groups (n=8) to match mean body masses between all DIO groups. An age-matched group with ad libitum access to a rodent maintenance diet (Teklad Global Diets Rodent 2014, pelleted) was included in the study as a lean control group. In the predosing phase from day 32 through 38, all study animals were treated with vehicle (Phosphate Buffered Saline, PBS, Gibco, without CaCl2 and MgCl2) once daily (s.c. approximately 0.2 mL/mouse).
On day 37 of the predose phase, the test article was diluted with PBS to a concentration of 100 μg/mL and aliquots of this stock solution were stored at approximately ≤−60° C. Stock aliquots were thawed for weekly use and thereafter stored in a refrigerator at approximately 4° C. The injected test article solution was prepared fresh once on each dosing day by diluting stock solution with PBS to achieve the desired concentration.
Mice were treated twice daily with a s.c. injection of PBS-vehicle or the test article for 28 days. The morning dosing was initiated and completed between 06:00 and 07:30 AM and the afternoon dosing between 2:00 and 3:30 PM. On day 28 of the dosing phase only the morning dose was administered. The applied volume was 5 ml/kg and the dose was adjusted to the most recent body mass recording of each individual.
Animals had unlimited access to water and feed during the experiment. On day 1 of the dosing phase approximately 5 μL of blood were collected via tail clips at hour 0 prior to the first s.c. dose of PBS-vehicle or test article and 1, 2, 3, 4, 6, and 24 hours post-dose in non-anesthetized animals. The 24 hour blood collection was performed prior to dosing on day 2. Between the 6 and 24 hour blood sample the afternoon dose was administered. Glucose measurements were performed in whole blood and in duplicate or triplicate using Aviva glucometers.
Body mass was measured daily approximately between 06:00-07:30 AM from day 32 through 38 of the predosing phase and throughout the 28 days of the dosing phase. During the dosing phase mice were treated twice daily with either a s.c. injection of PBS-vehicle or test article.
To determine whole body fat mass Quantitative Nuclear Magnetic Resonance (QNMR) measurements were performed on predosing day 37 and on day 26 of the dosing phase. During the dosing phase mice were treated twice daily with either a s.c. injection of PBS-vehicle or test article.
Feed consumption was based on the daily assessment of the feeder weights of each cage between 06:00-07:30 AM. Each cage housed four mice and feed consumption was calculated throughout the 28 days of the dosing phase. During the dosing phase mice were treated twice daily with either a s.c. injection of PBS-vehicle or test article.
On day 28 blood was collected prior to any other inlife activities for determination of plasma insulin concentrations. Then the morning dose was administered and necropsy was performed 4 hours post-dose. For this purpose animals were anesthetized with isoflurane and blood was collected by orbital bleeding. […]

[2] = Dynamic light scattering, hydrodynamic radius as surrogate for DLS interaction parameter kD; format: physicochemical
Excerpt: A monochromatic and coherent light beam (laser) is used to illuminate the liquid sample. Dynamic Light Scattering (DLS) measures light scattered from particles (1 nm≤radius≤1 μm) that undergo Brownian motion. This motion is induced by collisions between the particles and solvent molecules that themselves are moving due to their thermal energy. The diffusional motion of the particles results in temporal fluctuations of the scattered light [Pecora, R. Dynamic Light Scattering: Applications of Photon Correlation Spectroscopy, Plenum Press, 1985].
The scattered light intensity fluctuations are recorded and transformed into an autocorrelation function. By fitting the autocorrelation curve to an exponential function, the diffusion coefficient D of the particles in solution can be derived. The diffusion coefficient is then used to calculate the hydrodynamic radius Rh (or apparent Stokes radius) through the Stokes-Einstein equation assuming spherical particles. This calculation is defined in ISO 13321 and ISO 22412 [International Standard ISO13321 Methods for Determination of Particle Size Distribution Part 8: Photon Correlation Spectroscopy, International Organisation for Standardisation (ISO) 1996; International Standard ISO22412 Particle Size Analysis—Dynamic Light Scattering, International Organisation for Standardisation (ISO) 2008].
For every peptide solution, the hydrodynamic radius Rh and the diffusion constant D (related via the Stokes-Einstein equation) were determined as an average over triplicates. Both parameters were determined at different peptide concentrations (e.g., Rh1 and D1: 1 mg/ml and Rh5 and D5: 5 mg/ml) in the same buffer system. The difference of these parameters between low and high peptide concentration is a surrogate for the DLS interaction parameter kD. Rh5<Rh1 or D5>D1 correspond to kD>0 and therefore to repulsive inter-particle interactions that result in improved physical (or colloidal) stability.
DLS buffer system A) 25 mM acetate buffer pH 4.5, 3 mg/mL L-Methionine, 2.7 mg/mL m-cresol, 18 mg/mL Glycerol 85%
DLS Method C: DLS measurements were performed on a DynaPro Plate Reader II (Wyatt Technology, Santa Barbara, Calif., US) and using one of the following black, low volume, and non-treated plates: polystyrene 384 assay plate with clear bottom (Corning, N.Y., US), polystyrene 96 assay plate with clear bottom (Corning, N.Y., US), cyclo olefin polymer (COP) 384 assay plate with clear bottom (Aurora, Mont., US), or polystyrene 384 assay plate with clear bottom (Greiner Bio-One, Germany). The data were processed with the Dynamics software provided by Wyatt Technology. Parameters of the particle size distribution were determined with non-negatively constrained least squares (NNLS) methods using DynaLS algorithms. Measurements were taken at 25° C. with an 830 nm laser light source at an angle of 158°.
The hydrodynamic radius Rh of peptide samples was determined at different peptide concentrations (1 mg/ml and 5 mg/ml) in DLS buffer system A using DLS method C as described in Methods as surrogate for the DLS interaction parameter kD.

SMILES	time until mice habituated to the feed intake suppression [1]	Feed consumption estimate [1]	Blood glucose profile following first treatment [1]	Delta Rh [nm] = Rh5 − Rh1 ([2]; DLS buffer system A pH 4.5) [nm]	Rh1 [nm] c = 1 mg/ml ([2]; hydrodynamic radius, 1 mg/ml, DLS buffer system A pH 4.5, method C, 25° C.) [nm]	Rh5 [nm] c = 5 mg/ml ([2]; hydrodynamic radius, 5 mg/ml, DLS buffer system A pH 4.5, method C, 25° C.) [nm]
CCCCCCCCCCCCCCCC(=O)N[C@@H](CCC(=O)N[C@@H](CCC(=O)NCCCC[C@H](NC(=O)[C@H](CC(C)C)NC(=O)[C@H](CCCCN)NC(=O)[C@H](CO)NC(=O)[C@H](CC(C)C)NC(=O)[C@H](CC(=O)O)NC(=O)[C@H](CO)NC(=O)[C@@H](NC(=O)[C@H](Cc1ccccc1)NC(=O)[C@@H](NC(=O)CNC(=O)[C@H](Cc1c[nH]cn1)NC(=O)C(C)(C)NC(=O)[C@@H](N)Cc1c[nH]cn1)[C@@H](C)O)[C@@H](C)O)C(=O)N[C@@H](CCC(=O)O)C(=O)N[C@@H](CCC(=O)O)C(=O)N[C@@H](CCC(N)=O)C(=O)N[C@@H](CCCNC(=N)N)C(=O)N[C@@H](CCC(N)=O)C(=O)N[C@@H](CCCCN)C(=O)N[C@@H](CCC(=O)O)C(=O)N[C@@H](Cc1ccccc1)C(=O)N[C@H](C(=O)N[C@@H](CCC(=O)O)C(=O)N[C@@H](Cc1c[nH]c2ccccc12)C(=O)N[C@@H](CC(C)C)C(=O)N[C@@H](CCCCN)C(=O)N[C@@H](C)C(=O)NCC(=O)NCC(=O)N[C@@H](Cc1c[nH]cn1)C(=O)N1CCC[C@H]1C(=O)N[C@@H](CO)C(=O)NC(C)(C)C(=O)N[C@@H](CCCCN)C(=O)N1CCC[C@H]1C(=O)N1CCC[C@H]1C(=O)N1CCC[C@H]1C(=O)N[C@@H](CCCCN)C(N)=O)[C@@H](C)CC)C(=O)O)C(=O)O [SEQ ID NO: 6, H-Aib-H-G-T-F-T-S-D-L-S-K-L-K[gGlu-gGlu-Palm]-E-E-Q-R-Q-K-E-F-I-E-W-L-K-A-G-G-H-P-S-Aib-K-P-P-P-K-NH2]	approximately ten	suppressed feed intake	pronounced decrease in blood glucose concentrations over 24 hours	−0.9	2.5	1.7
CCCCCCCCCCCCCCCC(=O)N[C@@H](CCC(=O)N[C@@H](CCC(=O)NCCCC[C@H](NC(=O)[C@H](CC(C)C)NC(=O)[C@H](CCCCN)NC(=O)[C@H](CO)NC(=O)[C@H](CC(C)C)NC(=O)[C@H](CC(=O)O)NC(=O)[C@H](CO)NC(=O)[C@@H](NC(=O)[C@H](Cc1ccccc1)NC(=O)[C@@H](NC(=O)CNC(=O)[C@H](Cc1c[nH]cn1)NC(=O)C(C)(C)NC(=O)[C@@H](N)Cc1c[nH]cn1)[C@@H](C)O)[C@@H](C)O)C(=O)N[C@@H](CCC(=O)O)C(=O)N[C@@H](CCC(=O)O)C(=O)N[C@@H](CCC(N)=O)C(=O)N[C@@H](CCCNC(=N)N)C(=O)N[C@@H](CCC(N)=O)C(=O)NC(C)(C)C(=O)N[C@@H](CCC(=O)O)C(=O)N[C@@H](Cc1ccccc1)C(=O)N[C@H](C(=O)N[C@@H](CCC(=O)O)C(=O)N[C@@H](Cc1c[nH]c2ccccc12)C(=O)N[C@@H](CC(C)C)C(=O)N[C@@H](CCCCN)C(=O)N[C@@H](C)C(=O)N[C@H](C)C(=O)NCC(=O)N1CCC[C@H]1C(=O)N1CCC[C@H]1C(=O)N[C@@H](CO)C(=O)NC(C)(C)C(=O)N[C@@H](CCCCN)C(=O)N1CCC[C@H]1C(=O)N1CCC[C@H]1C(=O)N1CCC[C@H]1C(=O)N[C@@H](CCCCN)C(N)=O)[C@@H](C)CC)C(=O)O)C(=O)O [SEQ ID NO: 11, H-Aib-H-G-T-F-T-S-D-L-S-K-L-K[gGlu-gGlu-Palm]-E-E-Q-R-Q-Aib-E-F-I-E-W-L-K-A-dAla-G-P-P-S-Aib-K-P-P-P-K-NH2] (H-H[Aib]HGTFTSDLSKLK([γGlu-γGlu-Palmitoyl])EEQRQ[Aib]EFIEWLKA[dA]GPPS[Aib]KPPPK-NH2)	approximately 15 days	suppressed feed intake	pronounced decrease in blood glucose concentrations that persisted over 24 hours	–	–	–
